ChEMBL document CHEMBL5154879, “Induction of Genes Implicated in Stress Response and Autophagy by a Novel Quinolin-8-yl-nicotinamide QN523 in Pancreatic Cancer” (J Med Chem, 2022)

How the values were obtained:
MIA PaCa-2 [1] = assay: Cytotoxicity against human MIA PaCa-2 cells assessed as inhibition of cell growth incubated for 72 hrs by MTT assay; assay type: functional, cell-based; settings: MIA PaCa-2, 72 h
PANC-1 = assay: Cytotoxicity against human PANC-1 cells assessed as inhibition of cell growth incubated for 72 hrs by MTT assay; assay type: functional, cell-based; settings: PANC-1, 72 h
BXPC-3 = assay: Cytotoxicity against human BXPC-3 cells assessed as inhibition of cell growth incubated for 72 hrs by MTT assay; assay type: functional, cell-based; settings: BXPC-3, 72 h
MIA PaCa-2 [2] = assay: Induction of apoptosis in human MIA PaCa-2 cells assessed as late apoptotic cells at 0.1 uM incubated for 48 hrs by Annexin V-FITC/PI staining based flow cytometry analysis (reference value: 0.8%); assay type: functional
[3] = Cytotoxicity against human HFF-1 cells assessed as inhibition of cell growth incubated for 72 hrs by MTT assay; assay type: toxicity, cell-based
[4] = Cytotoxicity against HEK293 cells assessed as inhibition of cell growth incubated for 72 hrs by MTT assay; assay type: toxicity, cell-based; settings: human
[5] = Cytotoxicity against human HPDE cells assessed as inhibition of cell growth incubated for 72 hrs by MTT assay; assay type: toxicity, cell-based
MIA PaCa-2 [6] = assay: Induction of cell cycle arrest in human MIA PaCa-2 cells assessed as accumulation of cells at S phase at 0.1 uM incubated for 24 hrs by RNase/propidium iodide staining based flow cytometry analysis (Rvb =27.6 %); assay type: functional
MIA PaCa-2 [7] = assay: Induction of cell cycle arrest in human MIA PaCa-2 cells assessed as accumulation of cells at S phase at 0.1 uM incubated for 48 hrs by RNase/propidium iodide staining based flow cytometry analysis (Rvb =26.9 %); assay type: functional
MIA PaCa-2 [8] = assay: Induction of cell cycle arrest in human MIA PaCa-2 cells assessed as accumulation of cells in G2/M phase at 0.1 uM incubated for 24 hrs by RNase/propidium iodide staining based flow cytometry analysis (reference value: 8.11%); assay type: functional
MIA PaCa-2 [9] = assay: Induction of cell cycle arrest in human MIA PaCa-2 cells assessed as accumulation of cells in G2/M phase at 0.1 uM incubated for 48 hrs by RNase/propidium iodide staining based flow cytometry analysis (reference value: 2.71%); assay type: functional
MIA PaCa-2 [10] = assay: Induction of cell cycle arrest in human MIA PaCa-2 cells assessed as accumulation of cells in G0/G1 phase at 0.1 uM incubated for 24 hrs by RNase/propidium iodide staining based flow cytometry analysis (reference value: 64.3%); assay type: functional
MIA PaCa-2 [11] = assay: Induction of cell cycle arrest in human MIA PaCa-2 cells assessed as accumulation of cells in G0/G1 phase at 0.1 uM incubated for 48 hrs by RNase/propidium iodide staining based flow cytometry analysis (reference value: 70.4%); assay type: functional
MIA PaCa-2 [12] = assay: Induction of apoptosis in human MIA PaCa-2 cells assessed as viable cells at 0.1 uM incubated for 24 hrs by Annexin V-FITC/PI staining based flow cytometry analysis (reference value: 90.2%); assay type: functional; settings: read-out: Activity
MIA PaCa-2 [13] = assay: Induction of apoptosis in human MIA PaCa-2 cells assessed as early apoptotic cells at 0.1 uM incubated for 24 hrs by Annexin V-FITC/PI staining based flow cytometry analysis (reference value: 5.1%); assay type: functional
MIA PaCa-2 [14] = assay: Induction of apoptosis in human MIA PaCa-2 cells assessed as late apoptotic cells at 0.1 uM incubated for 24 hrs by Annexin V-FITC/PI staining based flow cytometry analysis (reference value: 2.04%); assay type: functional
MIA PaCa-2 [15] = assay: Induction of apoptosis in human MIA PaCa-2 cells assessed as necrotic cells at 0.1 uM incubated for 24 hrs by Annexin V-FITC/PI staining based flow cytometry analysis (reference value: 2.7%); assay type: functional
MIA PaCa-2 [16] = assay: Induction of apoptosis in human MIA PaCa-2 cells assessed as live cells at 0.5 uM incubated for 24 hrs by Annexin V-FITC/PI staining based flow cytometry analysis (reference value: 90.2%); assay type: functional
MIA PaCa-2 [17] = assay: Induction of apoptosis in human MIA PaCa-2 cells assessed as early apoptotic cells at 0.5 uM incubated for 24 hrs by Annexin V-FITC/PI staining based flow cytometry analysis (reference value: 5.1%); assay type: functional
MIA PaCa-2 [18] = assay: Induction of apoptosis in human MIA PaCa-2 cells assessed as late apoptotic cells at 0.5 uM incubated for 24 hrs by Annexin V-FITC/PI staining based flow cytometry analysis (reference value: 2.04%); assay type: functional
MIA PaCa-2 [19] = assay: Induction of apoptosis in human MIA PaCa-2 cells assessed as necrotic cells at 0.5 uM incubated for 24 hrs by Annexin V-FITC/PI staining based flow cytometry analysis (reference value: 2.7%); assay type: functional
MIA PaCa-2 [20] = assay: Induction of apoptosis in human MIA PaCa-2 cells assessed as live cells at 0.1 uM incubated for 48 hrs by Annexin V-FITC/PI staining based flow cytometry analysis (reference value: 96.3%); assay type: functional
MIA PaCa-2 [21] = assay: Induction of apoptosis in human MIA PaCa-2 cells assessed as early apoptotic cells at 0.1 uM incubated for 48 hrs by Annexin V-FITC/PI staining based flow cytometry analysis (reference value: 1.8%); assay type: functional
MIA PaCa-2 [22] = assay: Induction of apoptosis in human MIA PaCa-2 cells assessed as necrotic cells at 0.1 uM incubated for 48 hrs by Annexin V-FITC/PI staining based flow cytometry analysis (reference value: 1.07%); assay type: functional
MIA PaCa-2 [23] = assay: Induction of apoptosis in human MIA PaCa-2 cells assessed as viable cells at 0.5 uM incubated for 48 hrs by Annexin V-FITC/PI staining based flow cytometry analysis (reference value: 96.3%); assay type: functional; settings: read-out: Activity
MIA PaCa-2 [24] = assay: Induction of apoptosis in human MIA PaCa-2 cells assessed as early apoptotic cells at 0.5 uM incubated for 48 hrs by Annexin V-FITC/PI staining based flow cytometry analysis (reference value: 1.8%); assay type: functional
MIA PaCa-2 [25] = assay: Induction of apoptosis in human MIA PaCa-2 cells assessed as late apoptotic cells at 0.5 uM incubated for 48 hrs by Annexin V-FITC/PI staining based flow cytometry analysis (reference value: 0.8%); assay type: functional
MIA PaCa-2 [26] = assay: Induction of apoptosis in human MIA PaCa-2 cells assessed as necrotic cells at 0.5 uM incubated for 48 hrs by Annexin V-FITC/PI staining based flow cytometry analysis (reference value: 1.07%); assay type: functional

Compound: Cc1ccc2cccc(NC(=O)c3ncccn3)c2n1
- IC50 (MIA PaCa-2 [1]): > 10 µM
- IC50 (PANC-1): > 10 µM
- IC50 (BXPC-3): > 10 µM

Compound: Nc1ccn([C@@H]2O[C@H](CO)[C@@H](O)C2(F)F)c(=O)n1 [GEMCITABINE]
- Activity (MIA PaCa-2 [2]): 2.01%
- IC50 (PANC-1): 0.2 µM
- IC50 at 72 h [3]: 14.4 µM
- IC50 at 72 h [4]: 0.05 µM
- IC50 at 72 h [5]: 0.001 µM
- Activity (MIA PaCa-2 [6]): 78.03%
- Activity (MIA PaCa-2 [7]): 89.3%
- Activity (MIA PaCa-2 [8]): 0.93%
- Activity (MIA PaCa-2 [9]): 0%
- Activity (MIA PaCa-2 [10]): 21.04%
- Activity (MIA PaCa-2 [11]): 10.8%
- viability at 0.1 µM (MIA PaCa-2 [12]): 79.1%
- Activity (MIA PaCa-2 [13]): 16.1%
- Activity (MIA PaCa-2 [14]): 4%
- Activity (MIA PaCa-2 [15]): 0.8%
- Activity (MIA PaCa-2 [16]): 87.2%
- Activity (MIA PaCa-2 [17]): 7.6%
- Activity (MIA PaCa-2 [18]): 2.8%
- Activity (MIA PaCa-2 [19]): 2.4%
- Activity (MIA PaCa-2 [20]): 93.7%
- Activity (MIA PaCa-2 [21]): 2.2%
- Activity (MIA PaCa-2 [22]): 2.1%
- viability at 0.5 µM (MIA PaCa-2 [23]): 90%
- Activity (MIA PaCa-2 [24]): 5.2%
- Activity (MIA PaCa-2 [25]): 2.3%
- Activity (MIA PaCa-2 [26]): 2.6%

Compound: O=C(Nc1cc(Cl)cc2cccnc12)c1cnccn1
- IC50 (MIA PaCa-2 [1]): 2.83 µM
- IC50 (PANC-1): 2.7 µM
- IC50 (BXPC-3): > 10 µM

Compound: NCCOc1cc(NC(=O)c2ncccn2)c2ncccc2c1
- IC50 (MIA PaCa-2 [1]): > 10 µM
- IC50 (PANC-1): > 10 µM
- IC50 (BXPC-3): > 10 µM

Compound: O=C(Nc1nccc2cccnc12)c1cnccn1
- IC50 (MIA PaCa-2 [1]): 7.7 µM
- IC50 (PANC-1): 6.7 µM
- IC50 (BXPC-3): 7.2 µM

Compound: O=C(Nc1cc(OCCF)cc2cccnc12)c1cnccn1
- IC50 (MIA PaCa-2 [1]): 0.37 µM
- IC50 (PANC-1): 0.53 µM
- IC50 (BXPC-3): 4.33 µM

Compound: Cc1cnc(C(=O)Nc2cccc3cccnc23)cn1
- IC50 (MIA PaCa-2 [1]): 0.5 µM
- IC50 (PANC-1): 1.8 µM
- IC50 (BXPC-3): 9.4 µM

Compound: O=C(Nc1cccc2cccnc12)c1ncc2ccccc2n1
- IC50 (MIA PaCa-2 [1]): > 10 µM
- IC50 (PANC-1): > 10 µM
- IC50 (BXPC-3): > 10 µM

Compound: Cc1cnc(C(=O)Nc2cc(OCCN(C)C)cc3cccnc23)cn1
- IC50 (MIA PaCa-2 [1]): 1.8 µM
- IC50 (PANC-1): 4.5 µM
- IC50 (BXPC-3): 9.67 µM

Compound: CN(C)Cc1ccc2cccc(NC(=O)c3cnccn3)c2n1
- IC50 (MIA PaCa-2 [1]): > 10 µM
- IC50 (PANC-1): > 10 µM
- IC50 (BXPC-3): > 10 µM

Compound: O=C(Nc1ccc(Br)c2cccnc12)c1cnccn1
- IC50 (MIA PaCa-2 [1]): 0.75 µM
- IC50 (PANC-1): 7 µM
- IC50 (BXPC-3): 7.5 µM

Compound: Cc1cnc(C(=O)Nc2cc(OCCN)cc3cccnc23)cn1
- IC50 (MIA PaCa-2 [1]): > 10 µM
- IC50 (PANC-1): > 10 µM
- IC50 (BXPC-3): > 10 µM

Compound: Cc1cnc(C(=O)Nc2ccc3ncccc3c2)cn1
- IC50 (MIA PaCa-2 [1]): > 10 µM
- IC50 (PANC-1): > 10 µM
- IC50 (BXPC-3): > 10 µM

Compound: COc1cc(NC(=O)c2ncccn2)c2ncccc2c1
- IC50 (MIA PaCa-2 [1]): 1.3 µM
- IC50 (PANC-1): 9 µM
- IC50 (BXPC-3): > 10 µM

Compound: O=C(Nc1cc(OCCN2CCOCC2)cc2cccnc12)c1cnccn1
- IC50 (MIA PaCa-2 [1]): 1.7 µM
- IC50 (PANC-1): 8.17 µM
- IC50 (BXPC-3): 5.17 µM

Compound: Cc1cnc(C(=O)Nc2ccc(Br)c3cccnc23)cn1
- IC50 (MIA PaCa-2 [1]): 2.2 µM
- IC50 (PANC-1): 6.8 µM
- IC50 (BXPC-3): > 10 µM

Compound: O=C(Nc1cccc2cccnc12)c1ccc(Br)cn1
- IC50 (MIA PaCa-2 [1]): 1.8 µM
- IC50 (PANC-1): 4 µM
- IC50 (BXPC-3): > 10 µM

Compound: O=C(Nc1cc(F)cc2cccnc12)c1cnccn1
- IC50 (MIA PaCa-2 [1]): 0.13 µM
- IC50 (PANC-1): 0.67 µM
- IC50 (BXPC-3): > 10 µM

Compound: Cc1cnc(C(=O)Nc2cccc3ccc(C)nc23)cn1
- IC50 (MIA PaCa-2 [1]): > 10 µM
- IC50 (PANC-1): > 10 µM
- IC50 (BXPC-3): > 10 µM

Compound: O=C(Nc1cccc2cccnc12)c1ccc(F)nc1
- IC50 (MIA PaCa-2 [1]): > 10 µM
- IC50 (PANC-1): > 10 µM
- IC50 (BXPC-3): > 10 µM

Compound: COc1cc(NC(=O)c2cnc(C)cn2)c2ncccc2c1
- IC50 (MIA PaCa-2 [1]): 0.27 µM
- IC50 (PANC-1): 0.8 µM
- IC50 (BXPC-3): 6.7 µM

Compound: CC(C)(C)OC(=O)N1CCC(CCOc2cc(NC(=O)c3ncccn3)c3ncccc3c2)CC1
- IC50 (MIA PaCa-2 [1]): > 10 µM
- IC50 (PANC-1): > 10 µM
- IC50 (BXPC-3): > 10 µM

Compound: O=C(Nc1cc(OCCN2CCCCC2)cc2cccnc12)c1cnccn1
- IC50 (MIA PaCa-2 [1]): > 10 µM
- IC50 (PANC-1): > 10 µM
- IC50 (BXPC-3): > 10 µM
